The values below come from patent US20250145633A1, “SUBSTITUTED FURANOPYRIMIDINE COMPOUNDS AS PDE1 INHIBITORS” (Dart NeuroScience, LLC, priority 2017, published 2025).

The structures appear in SMILES notation. Some results are limits rather than exact numbers.

The target in the first experiment is human PDE1B enzyme (Homo sapiens (Human), UniProt Q01064). The experiment in a line: IMAP TR-FRET PDE1B enzymatic assay. Type of experiment: biochemical. The following applies: negative log of half-maximal molar inhibitory concentration; 200 nM FAM-cAMP; values given as bins. In short, it runs like this:
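Full-length GST-tagged human PDE1B (250 pg/well) in IMAP BSA buffer with 10 U/ml calmodulin and 2.5 mM CaCl2; compound pre-incubated 5 min at room temperature, then 200 nM (final) FAM-cAMP for 30 min. IMAP binding reagent/Tb added, 1 h; TR-FRET 520/490 ratio read. IC50 from sigmoidal dose-response fit.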
In the case of `COc1ncc(CNC(=O)c2c(C)oc3ncnc(NC4(C)CC4)c23)cn1` [Example 698, N-[(2-Methoxypyrimidin-5-yl)methyl]-6-methyl-4-[(1-methylcyclopropyl)amino]furo[2,3-d]pyrimidine-5-carboxamide], the “PDE1b (pIC50)” value is given as greater than 8.

For the molecule `Cc1oc2ncnc(NC3(C)CC3)c2c1C(=O)NCc1nc(C(F)(F)F)cs1` [Example 704, 6-Methyl-4-[(1-methylcyclopropyl)amino]-N-{[4-(trifluoromethyl)-1,3-thiazol-2-yl]methyl}furo[2,3-d]pyrimidine-5-carboxamide], the “PDE1b (pIC50)” value is recorded as greater than 8.

Consider `Cc1cnc(CNC(=O)c2c(C)oc3ncnc(NC4(C)CC4)c23)nc1` [Example 705, 6-Methyl-4-[(1-methylcyclopropyl)amino]-N-[(5-methylpyrimidin-2-yl)methyl]furo[2,3-d]pyrimidine-5-carboxamide], for which the “PDE1b (pIC50)” value is listed as greater than 8.

`Cc1oc2ncnc(NC3(C)CC3)c2c1C(=O)NCc1cnc(C2CC2)nc1` [Example 708, N-[(2-Cyclopropylpyrimidin-5-yl)methyl]-6-methyl-4-[(1-methylcyclopropyl)amino]furo[2,3-d]pyrimidine-5-carboxamide]: the “PDE1b (pIC50)” value is recorded as greater than 8.

Consider `COc1ccc2oc(CNC(=O)c3c(C)oc4ncnc(NC5(C)CC5)c34)nc2c1` [Example 714, N-[(5-Methoxy-1,3-benzoxazol-2-yl)methyl]-6-methyl-4-[(1-methylcyclopropyl)amino]furo[2,3-d]pyrimidine-5-carboxamide], for which the “PDE1b (pIC50)” value was greater than 8.

With `Cc1oc2ncnc(NC3(C)CC3)c2c1C(=O)NCc1ncc(Cl)cn1` [Example 716, N-[(5-Chloropyrimidin-2-yl)methyl]-6-methyl-4-[(1-methylcyclopropyl)amino]furo[2,3-d]pyrimidine-5-carboxamide], the “PDE1b (pIC50)” value was greater than 8.

The same experiment, now with this note: negative log of half-maximal molar inhibitory concentration; 200 nM FAM-cAMP; values given as bins; read-out: PDE1b (pIC50) (converted).
For `COc1nc(C(C)C)nc2c1CN(C(=O)c1c(C)oc3ncnc(NC4(C)CC4)c13)C2` [Example 688, 5-[4-Methoxy-2-(propan-2-yl)-5H,6H,7H-pyrrolo[3,4-d]pyrimidine-6-carbonyl]-6-methyl-N-(1-methylcyclopropyl)furo[2,3-d]pyrimidin-4-amine], the IC50 was 10 to 100 nM.

On to `Cc1oc2ncnc(NC3(C)CC3)c2c1C(=O)NCc1ccnc(C2CC2)n1` [Example 689, N-[(2-Cyclopropylpyrimidin-4-yl)methyl]-6-methyl-4-[(1-methylcyclopropyl)amino]furo[2,3-d]pyrimidine-5-carboxamide], for which the IC50 was 10 to 100 nM.

`Cc1oc2ncnc(NC3(C)CC3)c2c1C(=O)N1CCc2cnc(Cl)nc2C1` [Example 690, 5-{2-Chloro-5H,6H,7H,8H-pyrido[3,4-d]pyrimidine-7-carbonyl}-6-methyl-N-(1-methylcyclopropyl)furo[2,3-d]pyrimidin-4-amine]: the IC50 is 10 to 100 nM.

As to `Cc1oc2ncnc(NC3(C)CC3)c2c1C(=O)NCc1ncc(C(C)(C)C)o1` [Example 691, N-[(5-tert-Butyl-1,3-oxazol-2-yl)methyl]-6-methyl-4-[(1-methylcyclopropyl)amino]furo[2,3-d]pyrimidine-5-carboxamide], the IC50 was 10 to 100 nM.

On to `Cc1oc2ncnc(NC3(C)CC3)c2c1C(=O)N(C)Cc1ncco1` [Example 692, N,6-Dimethyl-4-[(1-methylcyclopropyl)amino]-N-(1,3-oxazol-2-ylmethyl)furo[2,3-d]pyrimidine-5-carboxamide], for which the IC50 was 100 to 1000 nM.

On to `Cc1oc2ncnc(NC3(C)CC3)c2c1C(=O)NCCc1cnc(C2CC2)nc1` [Example 693, N-[2-(2-Cyclopropylpyrimidin-5-yl)ethyl]-6-methyl-4-[(1-methylcyclopropyl)amino]furo[2,3-d]pyrimidine-5-carboxamide], for which the IC50 is 100 to 1000 nM.

On to `Cc1oc2ncnc(NC3(C)CC3)c2c1C(=O)N1CCn2c(C3CC3)nc(Cl)c2C1` [Example 694, 5-{1-Chloro-3-cyclopropyl-5H,6H,7H,8H-imidazo[1,5-a]pyrazine-7-carbonyl}-6-methyl-N-(1-methylcyclopropyl)furo[2,3-d]pyrimidin-4-amine], for which the IC50 is 10 to 100 nM.

As for `Cc1oc2ncnc(NC3(C)CC3)c2c1C(=O)N1CCn2c(C3CC3)nc(I)c2C1` [Example 695, 5-{3-Cyclopropyl-1-iodo-5H,6H,7H,8H-imidazo[1,5-a]pyrazine-7-carbonyl}-6-methyl-N-(1-methylcyclopropyl)furo[2,3-d]pyrimidin-4-amine], the IC50 is 10 to 100 nM.

For the molecule `Cc1oc2ncnc(NC3(C)CC3)c2c1C(=O)NCc1ncc(C(F)(F)F)cn1` [Example 696, 6-Methyl-4-[(1-methylcyclopropyl)amino]-N-{[5-(trifluoromethyl)pyrimidin-2-yl]methyl}furo[2,3-d]pyrimidine-5-carboxamide], the IC50 was 10 to 100 nM.

With `Cc1cccc(CNC(=O)c2c(C)oc3ncnc(NC4(C)CC4)c23)n1` [Example 697, 6-Methyl-4-[(1-methylcyclopropyl)amino]-N-[(6-methylpyridin-2-yl)methyl]furo[2,3-d]pyrimidine-5-carboxamide], the IC50 is 10 to 100 nM.

Take `COc1ncc2c(n1)CN(C(=O)c1c(C)oc3ncnc(NC4(C)CC4)c13)CC2` [Example 699, 5-{2-Methoxy-5H,6H,7H,8H-pyrido[3,4-d]pyrimidine-7-carbonyl}-6-methyl-N-(1-methylcyclopropyl)furo[2,3-d]pyrimidin-4-amine]: the IC50 is 100 to 1000 nM.

Take `Cc1csc(CN(C)C(=O)c2c(C)oc3ncnc(NC4(C)CC4)c23)n1` [Example 700, N,6-Dimethyl-N-[(4-methyl-1,3-thiazol-2-yl)methyl]-4-[(1-methylcyclopropyl)amino]furo[2,3-d]pyrimidine-5-carboxamide]: the IC50 is 10 to 100 nM.

For the molecule `Cc1oc2ncnc(NC3(C)CC3)c2c1C(=O)N(C)Cc1nccs1` [Example 701, N,6-Dimethyl-4-[(1-methylcyclopropyl)amino]-N-(1,3-thiazol-2-ylmethyl)furo[2,3-d]pyrimidine-5-carboxamide], the IC50 is 100 to 1000 nM.

Turning to `Cc1cnc(CN(C)C(=O)c2c(C)oc3ncnc(NC4(C)CC4)c23)s1` [Example 702, N,6-Dimethyl-N-[(5-methyl-1,3-thiazol-2-yl)methyl]-4-[(1-methylcyclopropyl)amino]furo[2,3-d]pyrimidine-5-carboxamide], the IC50 was 10 to 100 nM.

Turning to `Cc1csc(CNC(=O)c2c(C)oc3ncnc(NC4(C)CC4)c23)n1` [Example 703, 6-Methyl-N-[(4-methyl-1,3-thiazol-2-yl)methyl]-4-[(1-methylcyclopropyl)amino]furo[2,3-d]pyrimidine-5-carboxamide], the IC50 is 10 to 100 nM.

For the molecule `Cc1oc2ncnc(NC3(C)CC3)c2c1C(=O)NCc1ncc(C(F)F)cn1` [Example 706, N-{[5-(Difluoromethyl)pyrimidin-2-yl]methyl}-6-methyl-4-[(1-methylcyclopropyl)amino]furo[2,3-d]pyrimidine-5-carboxamide], the IC50 was 10 to 100 nM.

For the molecule `Cc1oc2ncnc(NC3(C)CC3)c2c1C(=O)NCc1nccc(C(F)F)n1` [Example 707, N-{[4-(Difluoromethyl)pyrimidin-2-yl]methyl}-6-methyl-4-[(1-methylcyclopropyl)amino]furo[2,3-d]pyrimidine-5-carboxamide], the IC50 was 10 to 100 nM.

Regarding `COc1nc(C)nc2c1CN(C(=O)c1c(C)oc3ncnc(NC4(C)CC4)c13)C2` [Example 709, 5-{4-Methoxy-2-methyl-5H,6H,7H-pyrrolo[3,4-d]pyrimidine-6-carbonyl}-6-methyl-N-(1-methylcyclopropyl)furo[2,3-d]pyrimidin-4-amine], the IC50 is 100 to 1000 nM.

Take `Cc1oc2ncnc(NC3(C)CC3)c2c1C(=O)NC(C)c1cncnc1` (centres unmarked) [Example 710, 6-Methyl-4-[(1-methylcyclopropyl)amino]-N-[1-(pyrimidin-5-yl)ethyl]furo[2,3-d]pyrimidine-5-carboxamide]: the IC50 was 10 to 100 nM.

Take `COc1ccc(CNC(=O)c2c(C)oc3ncnc(NC4(C)CC4)c23)nn1` [Example 711, N-[(6-Methoxypyridazin-3-yl)methyl]-6-methyl-4-[(1-methylcyclopropyl)amino]furo[2,3-d]pyrimidine-5-carboxamide]: the IC50 was 10 to 100 nM.

Turning to `COc1nc(C)nc2c1CN(C(=O)c1c(C)oc3ncnc(NC4(C)CC4)c13)CC2` [Example 712, 5-{4-Methoxy-2-methyl-5H,6H,7H,8H-pyrido[4,3-d]pyrimidine-6-carbonyl}-6-methyl-N-(1-methylcyclopropyl)furo[2,3-d]pyrimidin-4-amine], the IC50 is 10 to 100 nM.

With `Cc1oc2ncnc(NC3(C)CC3)c2c1C(=O)NCc1ncco1` [Example 713, 6-Methyl-4-[(1-methylcyclopropyl)amino]-N-(1,3-oxazol-2-ylmethyl)furo[2,3-d]pyrimidine-5-carboxamide], the IC50 is 10 to 100 nM.

In the case of `Cc1oc2ncnc(NC3(C)CC3)c2c1C(=O)NCc1nccn1C` [Example 715, 6-Methyl-N-[(1-methyl-1H-imidazol-2-yl)methyl]-4-[(1-methylcyclopropyl)amino]furo[2,3-d]pyrimidine-5-carboxamide], the IC50 was 10 to 100 nM.

Take `Cc1nnc(CNC(=O)c2c(C)oc3ncnc(NC4(C)CC4)c23)o1` [Example 717, 6-Methyl-N-[(5-methyl-1,3,4-oxadiazol-2-yl)methyl]-4-[(1-methylcyclopropyl)amino]furo[2,3-d]pyrimidine-5-carboxamide]: the IC50 is 10 to 100 nM.

On to `Cc1ccc(CNC(=O)c2c(C)oc3ncnc(NC4(C)CC4)c23)nn1` [Example 718, 6-Methyl-4-[(1-methylcyclopropyl)amino]-N-[(6-methylpyridazin-3-yl)methyl]furo[2,3-d]pyrimidine-5-carboxamide], for which the IC50 was 10 to 100 nM.

Take `Cc1oc2ncnc(NC3(C)CC3)c2c1C(=O)NCc1cn2ccnc2cn1` [Example 719, N-{Imidazo[1,2-a]pyrazin-6-ylmethyl}-6-methyl-4-[(1-methylcyclopropyl)amino]furo[2,3-d]pyrimidine-5-carboxamide]: the IC50 was 10 to 100 nM.
